Patent publication US20210187014A1 (The Regents of the University of Colorado, a body corporate, priority 2018, published 2021)
Entries after “also recorded” stand apart in the source; their conditions may differ.

Legend:
mitochondria = test: In vitro mitochondrial iron uptake assay, mitochondria purified from worms (55Fe); format: biochemical, C. elegans; details: purified mitochondria incubated with 55FeCl3 +/- Ent
Experimental: (§1) Mitochondrial iron uptake assays. For the in vitro mitochondrial iron uptake assay, the present inventors modified a published procedure for analysis of mammalian cells (Devireddy et al., 2010). […] The samples were incubated for 4 hours at room temperature, and the amount of 55Fe in lysed mitochondria was determined by liquid scintillation.

HEK293 cells = test: Cellular iron level by Calcein AM fluorescence in HEK293 cells +/- iron chelator DFO; format: cell-based, human
Experimental: Here, a similar test was done in human HEK293 cells. […] The present inventors then created a low-iron condition by adding an iron chelator, Deferoxamine (DFO) to the medium (FIG. 18A). […] The assay was also performed using mouse intestinal epithelial (MODE-K) cells.

ATP5A1 = target: T1, ATP5A1 (Homo sapiens, UniProt P25705); test: 55FeCl3 +/- Ent in HEK293T cell lysates, ATP5A1 immunoprecipitation; format: binding
T1 construct: His

[1] = test system: C. elegans smf-3/DMT1 mutant; test: Growth of iron-deficient C. elegans smf-3/DMT1(-) mutant with iron chelator 2,2'-bipyridyl; format: in vivo
Experimental: FIG. 26. […] All tests were done on a smf-3/DMT1(-) mutant strain in a culture media where an iron chelator (2,2′-bipyridyl) was added to reduce the environmental iron level (FIG. 26A). […] This growth delay was rescued by supplementation with Ent, scored as the percentage of the population at the indicated growth stage. […] The entP,fepA: E. coli mutant cannot synthesize or utilize Enterobactin.
SMF-3/DMT1 is a conserved divalent metal transporter that transports iron into intestinal cells. The smf-3/DMT1 mutant has been established as an iron deficiency model in C. elegans. These mutants have defective iron uptake that results in iron deficiency (Romney et al 2011) and delayed growth under iron-poor growth conditions created by addition of an iron chelator (2,2′-bipyridyl) to the culture media (Raj an et al 2019).
To determine if the Enterobactin supplementation was benefiting the worm directly or benefiting the worm through an E. coli-dependent mechanism, the test was repeated using an E. coli double mutant that cannot synthesize or utilize Ent (entP,fepk).

[2] = test system: murine intestinal epithelial (MODE-K) cells; test: Cellular iron level by Calcein AM fluorescence in MODE-K cells +/- DFO; format: cell-based, mouse
Experimental: The present inventors then created a low-iron condition by adding an iron chelator, Deferoxamine (DFO) to the medium (FIG. 18A). […] The assay was also performed using mouse intestinal epithelial (MODE-K) cells.

[3] = test system: mitochondria from HEK293T cells; test: In vitro mitochondrial iron uptake assay, mitochondria from HEK293T cells; format: biochemical, human
Text: (§2) Moreover, using siRNA knockdown (FIG. 13A), the present inventors observed that this Ent-mediated increase depended on ATP5A1 (FIG. 6E, F) in a similar manner as that in the assays for C. elegans (FIG. 5A, D). The present inventors also measured the mitochondrial iron level in cells by using the fluorescent mitochondrial iron indicator, RPA, to which iron binding quenches its fluorescence. […] The relatively smaller changes seen for cultured cells, compared to the difference in worms fed heat-killed food (FIG. 2), may potentially be due to the higher base iron level under the cell culturing condition.
as §1

HEK293T cells [4] = test: In vivo mitochondrial iron uptake assay in HEK293T cells; format: cell-based, human
C. elegans [5] = test: Siderophore toxicity test: worm growth and mitochondrial morphology (mtGFP); format: in vivo; details: in vivo
Text: FIG. 8. Bacterial enterobactin promotes C. elegans development. […] (8E) The entA- and entF-mutant E. coli strains colonized the host gut as efficiently as the parental wild-type strain. (FIG. 8F) Cartoon diagram of feeding condition, microscope images and bar graph showing that neither pyoverdine nor ferrichrome caused obvious growth defects in worms fed heat-killed food plus wild-type, live E. coli. (FIG. 8G) Fluorescence microscopy of worms containing mtGFP under the same feeding condition as in (FIG. 8F). […] “n” =number of worms scored. Data are represented as mean±SEM. ***P<0.0001.

ATP-1 = target: T2, ATP-1 (Caenorhabditis elegans, UniProt Q9XXK1); test: Iron-binding assay: 55FeCl3 +/- siderophore in worm lysates, ATP-1 immunoprecipitation; set-up: species or system C. elegans
T2 construct: His; made in house; host or cells: E. coli (given only for the three ATP-1 segments)
Experimental: The present inventors added radiolabeled iron (55FeCl3) to worm lysates and then immunoprecipitated ATP-1.
In vitro binding assay. (a) Ent-biotin pull-down of total proteins: Ent-biotin and streptavidin beads were used to pull down interacting proteins from worm total protein extracts (same method as that in initial screen for Ent-binding proteins). Western blots were performed to detect ATP-1 (Thermo Fisher 43-9800). […] The assay was then quenched with a standard 5×SDS-PAGE_loading buffer (reducing). Proteins were separated by SDS-PAGE and transferred to_nitrocellulose membranes. The membranes were blocked for 1 h with 5% BSA in Trisbuffered saline (TBS) with 0.1% Tween 20 (TBST) at room temperature, followed by incubation for 1 h with horseradish peroxidase streptavidin (Cell Signaling_Technology,3999S) in TBST. After four washes with changes every 15 min in TBST, the_biotinylated proteins were visualized by enhanced chemiluminescence (GE Healthcare,_RPN2232). […] After IP, the amount of 55Fe was determined by liquid scintillation.

HEK293T cells [6] = test: CAS staining of siderophore level in HEK293T cells; format: cell-based, human; details: Ent supplemented to the culture medium
[7] = Ent stability by CAS liquid assay; format: physicochemical
Text: FIG. 25. […] Degradation is indicated by increased absorbance. […] Degradation is indicated by increased relative fluorescence. […] For all tests, dilutions were kept at room temp and exposed to light. Error is standard deviation of the mean.

HEK293T cells [8] = test: Mitochondrial iron level by fluorescent indicator RPA; format: cell-based, human
Text: as §2
Mitochondrial iron measurement in mammalian cells. The mitochondrial iron pools were determined as described (Mena et al., 2015). Briefly, cells were loaded for 20 min at 37 ° C. with 2 uM of the mitochondrial iron chelator rhodamine B-[(1,10-phenanthrolin-5-yl) aminocarbonyl]benzyl ester (RPA). After washing, the cells were imaged by fluorescence microscopy.

C. elegans [9] = test: Iron level in live worms by calcein-AM staining (and pftn-2::GFP reporter); format: in vivo
Experimental: The present inventors employed the commonly used fluorescent cell-permeable dye, calcein AM, of which emission is quenched by iron binding, and applied it to live worms as previously described to estimate the overall iron level in the host.
Live imaging of iron in worms was done as previously described (James et al., 2015). Briefly, worms were collected at different culture conditions, then co-cultured in M9 with 0.05 ug/ML calcein-AM (Invitrogen) for 1 h, then washed 3 times in 1 ml M9. Samples were then mounted for fluorescence microscopy.
For calcein-AM staining, the original images taken with GFP channel were used to measure the intensity. The value of staining intensity was determined by subtracting the background intensity from the calcein-AM stained intestine.

T2 sequence (Q9XXK1 whole entry): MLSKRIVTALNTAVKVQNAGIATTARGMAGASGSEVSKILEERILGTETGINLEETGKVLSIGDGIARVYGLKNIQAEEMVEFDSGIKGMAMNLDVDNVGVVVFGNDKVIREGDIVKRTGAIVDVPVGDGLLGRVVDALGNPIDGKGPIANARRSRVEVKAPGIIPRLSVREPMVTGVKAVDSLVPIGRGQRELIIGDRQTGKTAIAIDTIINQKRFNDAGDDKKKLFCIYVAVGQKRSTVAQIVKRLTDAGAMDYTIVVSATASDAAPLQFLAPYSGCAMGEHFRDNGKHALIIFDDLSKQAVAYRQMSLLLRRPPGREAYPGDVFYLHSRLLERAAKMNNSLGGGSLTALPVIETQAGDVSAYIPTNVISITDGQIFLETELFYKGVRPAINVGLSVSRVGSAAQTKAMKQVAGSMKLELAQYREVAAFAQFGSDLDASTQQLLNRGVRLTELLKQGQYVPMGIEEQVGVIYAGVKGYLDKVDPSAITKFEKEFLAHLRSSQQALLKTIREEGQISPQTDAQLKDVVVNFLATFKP
T1 sequence (P25705 44-553): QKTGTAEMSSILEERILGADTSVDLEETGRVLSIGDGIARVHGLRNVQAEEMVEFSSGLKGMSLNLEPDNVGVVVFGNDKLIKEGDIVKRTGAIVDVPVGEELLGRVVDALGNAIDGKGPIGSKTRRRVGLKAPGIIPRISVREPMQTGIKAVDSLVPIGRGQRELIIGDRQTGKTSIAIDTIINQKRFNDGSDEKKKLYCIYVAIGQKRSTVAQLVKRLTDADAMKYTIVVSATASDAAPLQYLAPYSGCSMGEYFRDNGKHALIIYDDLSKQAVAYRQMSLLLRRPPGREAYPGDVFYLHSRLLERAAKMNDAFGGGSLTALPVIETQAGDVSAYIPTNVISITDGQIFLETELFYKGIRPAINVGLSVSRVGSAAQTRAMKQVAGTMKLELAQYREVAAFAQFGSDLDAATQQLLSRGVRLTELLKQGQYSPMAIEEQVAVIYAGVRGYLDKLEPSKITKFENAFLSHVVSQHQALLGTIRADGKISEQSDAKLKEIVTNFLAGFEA

For `O=C(N[C@H]1COC(=O)[C@@H](NC(=O)c2cccc(O)c2O)COC(=O)[C@@H](NC(=O)c2cccc(O)c2O)COC1=O)c1cccc(O)c1O` [Ent, enterobactin], the “increase in 55Fe level in mitochondria” value (mitochondria) was 10 fold, the “decrease in Calcein AM fluorescence with Ent addition” value (HEK293 cells; medium with DFO, Ent 1.5 uM) was 45% and the iron level recovery (HEK293 cells; medium with DFO, Ent 1.5 uM) was “mostly recovered; also recorded: largely recovered”. The “increase of cellular iron uptake” value (HEK293 cells; standard culture medium) was ~33%, the “level of 55Fe in ATP5A1-IP samples” value (ATP5A1) was “increased” and the “growth of smf-3(-) mutants” value ([1]; E. coli double mutant that cannot synthesize or utilize Ent) was “rescued the growth of smf-3(-) mutants to adulthood”. For the same molecule, the “growth of smf-3(-) mutants” value ([1]; iron chelator 2,2'-bipyridyl in media) was “rescued the growth of smf-3(-) mutants to adulthood”, the “effect on cellular iron level” value ([2]; iron-poor/DFO condition) was “more pronounced” and the cellular iron level ([2]; standard medium) was “modestly increased the cellular iron level”. For the same molecule, the “iron level in mitochondria” value [3] was “prominently increased”, the “iron level in mitochondria” value (HEK293T cells [4]) was “prominently increased” and the “mitochondrial morphology (mtGFP)” value (C. elegans [5]) was “did not disrupt mitochondrial morphology”. For the same molecule, the “increase in 55Fe associated with ATP-1-IP” value (ATP-1; whole worm lysates) was > 10 fold, the “binding of ATP-1 to 55Fe” value (ATP-1; worm lysates) was “dramatically increased” and the “entry into cells (CAS staining, siderophore level)” value (HEK293T cells [6]) was “can enter”. For the same molecule, the stability ([7]; 100% DMSO, room temp, light) was “little change during the assay period”, the “stability in H2O at varying pH” value ([7]; H2O pH 6.5/7) was “more stable than the other dilutions in acidic and basic H2O” and the “time of rapid degradation” value ([7]; H20 (pH 5.5) with 10% DMSO, room temp, light) was ≤ 60 min. For the same molecule, the “stability in deionized water” value ([7]; pH 5.5) was “highly unstable”, the “mitochondrial iron level (RPA)” value (HEK293T cells [8]) was “increased the mitochondrial iron level” and the “iron-boosting effect of Ent (RPA)” value (HEK293T cells [8]; cells treated with ATP5A1 siRNA) was “not seen”. For the same molecule, the “iron level gain with Ent supplementation” value (C. elegans [9]; atp-1 RNAi, entF- mutant bacteria) was “eliminated the iron level gain”, the “iron level in worms (calcein AM and pftn-2::GFP)” value (C. elegans [9]; growth-arrested worms fed heat-killed E. coli only) was “such a defect was suppressed” and the “iron level and growth rate defects” value (C. elegans [9]; iron-deficient condition, worms treated with CaEDTA) was “both defects were suppressed”. The “iron level in worms (calcein AM fluorescence)” value (C. elegans [9]; worms fed entA- or entF- mutant bacteria with heat-killed E. coli) was “recovered”, the “amount of FeCl3 (175 ug/ul) with equivalent effect on calcein-AM fluorescence decrease” value (C. elegans [9]; worms treated with CaEDTA) was 10 µL and the “iron level increase attributed to Ent-mediated iron uptake” value (C. elegans [9]; worms treated with CaEDTA) was ≥ 10 fold.
